Experimental data: article PMC3344887 (PLoS ONE, 2012)
Read-outs that look alike come from different tables or passages of the source.

Key:
NET [1] = molecular target: T1, NET (Homo sapiens, UniProt P23975); details: % of plasma sample dilution, undiluted plasma = 100%; plasma 120 min after MDMA/placebo; mean±SEM
DAT [2] = molecular target: T2, DAT (Homo sapiens, UniProt Q01959); test: Radioligand binding, [3H]-WIN35,428, HEK 293 membranes; parameters: expressed in transfected cells; host or cells: HEK 293 cells (Invitrogen), stably transfected
T2 sequence (Q01959 whole entry): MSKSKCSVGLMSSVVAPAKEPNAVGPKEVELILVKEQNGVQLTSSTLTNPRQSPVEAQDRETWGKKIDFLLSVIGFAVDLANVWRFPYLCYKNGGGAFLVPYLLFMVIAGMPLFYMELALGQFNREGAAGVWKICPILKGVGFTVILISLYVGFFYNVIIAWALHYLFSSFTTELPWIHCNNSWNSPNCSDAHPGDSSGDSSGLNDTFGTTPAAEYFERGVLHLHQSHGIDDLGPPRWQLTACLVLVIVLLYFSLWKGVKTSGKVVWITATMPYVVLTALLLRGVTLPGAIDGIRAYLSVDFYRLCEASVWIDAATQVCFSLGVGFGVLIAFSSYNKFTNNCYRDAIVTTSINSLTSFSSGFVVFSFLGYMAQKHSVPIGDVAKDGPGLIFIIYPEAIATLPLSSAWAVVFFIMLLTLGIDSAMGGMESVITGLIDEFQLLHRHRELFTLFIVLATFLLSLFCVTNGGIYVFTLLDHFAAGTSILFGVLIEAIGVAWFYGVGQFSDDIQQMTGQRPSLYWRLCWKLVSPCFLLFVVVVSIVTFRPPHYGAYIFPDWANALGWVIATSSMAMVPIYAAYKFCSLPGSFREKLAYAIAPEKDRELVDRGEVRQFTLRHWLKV

[3] = parameters: method as in earlier work; details: cited from earlier work
SERT = SERT (Homo sapiens, UniProt P31645); details: % of plasma sample dilution, undiluted plasma = 100%; plasma 120 min after MDMA/placebo; mean±SEM
SERT, sequence (P31645 whole entry): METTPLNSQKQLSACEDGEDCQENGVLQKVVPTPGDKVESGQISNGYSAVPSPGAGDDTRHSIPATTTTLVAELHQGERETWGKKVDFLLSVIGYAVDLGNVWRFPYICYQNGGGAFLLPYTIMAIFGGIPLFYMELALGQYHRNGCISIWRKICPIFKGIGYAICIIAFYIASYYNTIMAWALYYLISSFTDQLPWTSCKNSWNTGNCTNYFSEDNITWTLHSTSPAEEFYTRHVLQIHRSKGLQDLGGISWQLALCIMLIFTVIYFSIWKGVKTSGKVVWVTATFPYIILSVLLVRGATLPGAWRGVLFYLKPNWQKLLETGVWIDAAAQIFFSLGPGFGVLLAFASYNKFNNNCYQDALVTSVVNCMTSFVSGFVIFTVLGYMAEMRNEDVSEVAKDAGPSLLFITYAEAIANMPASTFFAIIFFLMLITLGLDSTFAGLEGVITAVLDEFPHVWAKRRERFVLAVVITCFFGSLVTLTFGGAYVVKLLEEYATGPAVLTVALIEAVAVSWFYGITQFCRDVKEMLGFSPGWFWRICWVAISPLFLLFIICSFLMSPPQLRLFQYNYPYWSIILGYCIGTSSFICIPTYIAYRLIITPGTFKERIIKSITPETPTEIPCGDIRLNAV

NET [4] = molecular target: T1, NET; test: [3H]-NE uptake inhibition, method A (silicon oil); assay type: cell-based; parameters: expressed in transfected cells; host or cells: HEK 293 cells (Invitrogen), stably transfected
HEK 293 cells = test: Toxilight toxicity assay, cell integrity; assay type: cell-based, human
DAT [5] = molecular target: T2, DAT; details: % of plasma sample dilution, undiluted plasma = 100%; plasma 120 min after MDMA/placebo
clinical = details: human, in vivo
Procedure: (§1) Identical placebo (lactose) capsules were prepared. […] Drugs were administered without food.
Plasma concentrations of copeptin were also determined in this study as reported elsewhere. […] No hydrolysis was performed. Thus, the values for HMMA represent the drug concentrations of the non-conjugated metabolite. All blood samples were collected on ice and centrifuged within 10 min at 4°C. The plasma was then stored at –20°C until the analysis.
Cmax and tmax were obtained directly from the observed concentration-time curves. […] Terminal elimination half-life (t 1/2) was calculated using λz and the equation t1/2 = ln2/λz. The area under the plasma concentration-time curve up to 6 h (AUC0-6h) was calculated using the linear trapezoidal rule. The AUC0–∞ was determined by extrapolation of AUC0–6h using λz. The PK parameters were determined using the PK functions for Excel (Microsoft, Redmont, CA, USA). Plasma concentrations were only determined up to 6 h after MDMA administration because the aim of the study was to assess potential changes in MDMA plasma levels while relevant pharmacodynamic effects or MDMA were present.

healthy subjects [6] = test: Visual Analog Scales, subjective drug effects, clinical study; assay type: in vivo, humans
Procedure: The washout periods between the sessions were at least 10 days long.
as §1
The psychometric measures included Visual Analog Scales (VAS), [10], the Adjective Mood Rating Scale (AMRS), and 5-Dimensions of Altered States of Consciousness (5D-ASC), [23]. […] The VASs were presented as 100 mm horizontal lines marked “not at all" on the left and “extremely" on the right. The VASs for “closeness to others," “open," and “talkative" were bidirectional (±50 mm). The VASs were administered 4 h before and 0, 0.33, 1, 1.5, 2, 2.5, 3, 3.5, 4, and 5 h after MDMA or placebo administration. […] The AMRS contains subscales for activity, extroversion and introversion, well-being, emotional excitation, anxiety-depression, and dreaminess. The 5D-ASC rating scale measures alterations in mood, perception, experience of self in relation to the environment, and thought disorder. The 5D-ASC rating scale comprises five subscales or dimensions and 11 lower-order scales. The 5D-ASC dimension “oceanic boundlessness" (OB, 27 items) measures derealization and depersonalization associated with positive emotional states, ranging from heightened mood to euphoric exaltation. […] The global ASC score was determined by adding the OB, AED, and VR scores. The 5D-ASC scale was administered 4 h after MDMA or placebo administration.
Clinical data values were transformed to differences from baseline. Peak effects (Emax) were determined for repeated measures. Emax values were compared using General Linear Models repeated-measures analysis of variance, with drug as within-subject factor, using Statistica 6.0 software (StatSoft, Tulsa, OK). Tukey post hoc comparisons were performed based on significant main effects of treatment. Additional analyses of variance were performed, with period as factor to exclude period effects. Correlation analyses were performed using Pearson’s correlations. The criterion for significance was p<0.05. Mean arterial pressure (MAP) was calculated from diastolic blood pressure and systolic blood pressure using the following formula: MAP = DBP+(SBP - DBP)/3.

healthy subjects [7] = test: Soft-link PK-PD model, MDMA plasma concentration vs VAS any drug effect; assay type: in vivo, humans; details: for EC50: Homo sapiens
Excerpt: PK-PD modeling: First, a soft-link PK-PD model was used to evaluate the in vivo relationship between the concentration of MDMA and subjective effect of the drug. The change in the VAS for any drug effect was used as the pharmacodynamic measure in each individual. Because we observed clockwise hysteresis in the effect-concentration relationship over time, we used PK-PD data pairs within the ascending part of the individual curves up to Emax or Cmax. Our estimate of Emax, which should represent the maximal response portion of the dose-response curve, may already have been affected by tolerance. […] Based on the good brain penetration of MDMA and absence of a time lag, we assumed rapid equilibration between plasma and the central compartment (brain). […] The sigmoid Emax model provided a better fit than a simple Emax or linear model. Data pooling was used because only few data pairs were available per subject. Non-linear regression was used to obtain parameter estimates. Second, we also used a hard-link PK-PD model to predict in vivo PD effects based on the in vitro concentration-response data linked to the observed individual in vivo PK. […] Similar to the soft-link PK-PD model, a single compartment PK model (plasma = brain concentration) was used, and only ascending PK or PD values were included. The in vivo data were linked to the PK of each individual, and a mean predicted effect-time curve was established.

[8] = peak change from baseline, mean±SEM, 16 subjects

T1 sequence (P23975 whole entry): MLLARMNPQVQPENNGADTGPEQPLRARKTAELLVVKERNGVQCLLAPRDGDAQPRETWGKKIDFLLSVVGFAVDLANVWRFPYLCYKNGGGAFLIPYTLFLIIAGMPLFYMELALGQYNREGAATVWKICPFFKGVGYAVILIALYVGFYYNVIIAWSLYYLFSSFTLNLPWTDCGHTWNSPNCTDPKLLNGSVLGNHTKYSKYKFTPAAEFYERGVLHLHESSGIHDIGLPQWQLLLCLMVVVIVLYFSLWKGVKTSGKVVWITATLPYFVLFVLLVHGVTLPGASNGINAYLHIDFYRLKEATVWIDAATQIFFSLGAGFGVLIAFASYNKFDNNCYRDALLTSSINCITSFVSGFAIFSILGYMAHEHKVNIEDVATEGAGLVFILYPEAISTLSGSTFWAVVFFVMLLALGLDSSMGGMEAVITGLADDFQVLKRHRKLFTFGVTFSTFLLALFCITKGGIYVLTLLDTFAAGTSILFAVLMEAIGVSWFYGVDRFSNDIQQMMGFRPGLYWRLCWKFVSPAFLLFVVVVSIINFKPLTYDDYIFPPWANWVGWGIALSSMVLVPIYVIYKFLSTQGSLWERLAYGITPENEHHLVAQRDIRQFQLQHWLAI

CNC(C)Cc1ccc2c(c1)OCO2 (centres unmarked) [MDMA, 3,4-methylenedioxymethamphetamine]
Ex vivo binding (IC50%) NET (NET [1]): 23.4±0.7%
Ki (DAT [2]): 6.52 ± 2.24 µM
Mean duration of subjective and cardiovascular effects [3]: 3.5 h
Time within which effects completely subside [3]: 5 to 6 h
Ex vivo binding (IC50%) SERT (SERT): >25%
Ki (NET [4]): 0.47 µM
Potency of NET inhibition relative to SERT (NET [4]; uptake inhibition): three-fold more potently
Cell integrity after treatment (HEK 293 cells): confirmed
Ex vivo binding (IC50%) DAT (DAT [5]): >25%
Cmax (clinical): 0.254 ± 0.0136 µg/mL
Cmax (clinical; 125 mg): 0.221 ± 0.0116 µg/mL
AUC(0-t) (clinical; AUC0-6): 1.11 ± 0.0572 µg·h/mL
AUC(0-t) (clinical; AUC0-6, Placebo-MDMA session, mean±SEM, n=16): 0.953 ± 0.0459 µg·h/mL
AUC(0-inf) (clinical; AUC(0-∞)): 2.91 ± 0.276 µg·h/mL
half-life (clinical; T1/2): 7.14 ± 0.4 h
half-life (clinical; T1/2, Placebo-MDMA session, mean±SEM, n=16): 8.17 ± 0.74 h
Tmax (clinical): 2.66 ± 0.29 h
Tmax (clinical; Placebo-MDMA session, mean±SEM, n=16): 2.34 ± 0.19 h
Observed time to half-maximal subjective drug effect (healthy subjects [6]; after drug administration): 44 ± 4 min
VAS Any drug effect, Emax (healthy subjects [6]; [8]): 86.69±3.57
VAS Closeness, Emax (healthy subjects [6]; [8]): 27.31±3.87
VAS Drug high, Emax (healthy subjects [6]; [8]): 87.81±4.85
VAS Drug liking, Emax (healthy subjects [6]; [8]): 90.69±4.82
VAS Good drug effect, Emax (healthy subjects [6]; [8]): 89.38±4.67
VAS Open, Emax (healthy subjects [6]; [8]): 32.16±4.29
VAS Stimulated, Emax (healthy subjects [6]; [8]): 76.31±6.84
VAS Talkative, Emax (healthy subjects [6]; [8]): 28.81±5.12
EC50 (healthy subjects [7]; second statement, in brackets, read-out: EC50 of the PK-PD curve in humans): 0.38 µM
EC50 (healthy subjects [7]; second statement, read-out: EC50 of the PK-PD curve in humans): 0.074 mg/L
EC50 (healthy subjects [7]; sigmoid Emax model, in brackets, read-out: EC50 of in vivo PK-PD relationship (MDMA plasma concentration)): 0.48 µM
EC50 (healthy subjects [7]; sigmoid Emax model, pooled data, read-out: EC50 of in vivo PK-PD relationship (MDMA plasma concentration)): 0.0925 ± 0.0076 mg/L
Emax of in vivo PK-PD relationship (any drug effect) (healthy subjects [7]; sigmoid Emax model, pooled data): 93.8±7.3%
